Measurements reported in patent US9408828B2, “(+)-3′-angeloyloxy-4′-keto-3′,4′-dihydroseselin for treating inflammation” (Hong Kong Baptist University, priority 2014, dated 2016).

Experiments:
[1] = test system: IκB-α; assay: Western blot of IκB-α degradation in LPS-stimulated RAW-Blue cells; format: cell-based, murine; details: LPS 1 μg/mL, Pd-Ib 5, 10, 20 μg/mL, 20 h; compared to LPS-stimulated macrophage
Description: Data are derived from three independent experiments and presented as mean±SEM. ^#Compared with control group. *P<0.05 is compared with LPS-alone group.
After Raw-Blue cells are treated with LPS and Pd-Ib, whole cell extract is prepared with lysis buffer [1% Triton X-100, 0.1% SDS, 0.5% deoxycholate, 1 mM EDTA, 20 mM Tris (pH 7.4), 150 mM NaCl, 10 mM NaF, 1 mM Na3VO4, 0.1 mM phenylmethylsulfonyl fluoride and one protease inhibitor cocktail tablet (Roche, USA)]. Total protein concentration is measured using a protein assay kit, followed by centrifugation at 13,500 rpm for 15 minutes at 4° C., then 10-25 μg of protein from the supernatants is then separated on 10% sodium dodecylsulphate-polyacrylamide gel (SDS-PAGE) and transferred on to polyvinylidene difluoride membranes. After blocking with 5% skim milk powder in Tris-buffered saline-Tween (TBST; 50 mM Tris, 150 mM NaCl, pH 7.4; 0.01% Tween-20) for 1 hour at room temperature, the membrane is then incubated with primary antibody (1:5,000 dilution) in 5% skim milk in TBST overnight at 4° C. […] The membrane is rewashed (TBST; 3×10 min), and the immune-reactive proteins are detected by enhanced chemiluminescence using X-ray film and ECL reagent. The protein bands are quantified by measuring the relative intensity compared to the control using Image J Software (version 4.1.7, NIH, USA).

[2] = test system: TNF-α; assay: ELISA of TNF-α in colon tissue, DSS-induced colitis; format: in vivo, C57BL/6 mice; details: compared with the DSS treatment group
Description: (§1) Colon levels of cytokines are assayed using commercially available ELISA kits. Briefly, colon samples are homogenized in phosphate buffer containing 0.05% Tween-20, 0.1 mM phenylmethylsulfonyl fluoride, 0.1 mM benzethonium chloride, 10 mM EDTA, and 20 IU aprotinin A. The homogenates are centrifuged at 16000 g at 4° C. for 15 min, and the supernatants are collected for the determination of levels of the cytokines, IL-6, IL-4, TNF-α, and IFN-γ, according to the manufacturer's protocols. The amount of protein in each sample is measured by the Bradford method, using bovine serum albumin as a standard. The levels of each cytokine are evaluated in each sample and expressed in […].
(§2) Colitis is induced in all groups except the control group. Pd-Ib and sulfasalazine are administered to mice from day 6 to day 12. On day 13, the mice are sacrificed, Data are expressed as mean±SEM, n=8 (*p<0.05, **p<0.01, ***p<0.001, compared with DSS model group).

[3] = test system: nitric oxide (NO) production in LPS-stimulated RAW-Blue cells; assay: Nitric oxide production determination (Griess reagent); format: cell-based, murine; details: Mus musculus, LPS 1 μg/mL 20 hours
Description: (§3) After macrophages are treated with 1 μg/mL of LPS in absence or presence various concentrations of Pd-Ib (5, 10, 20 μg/mL) for 20 hours, the mRNA levels of iNOS (A), TNF-α (B) and IL-1β (C) are determined by real time PCR, while the production of NO (D) is determined by Griess reagent. Data are derived from three independent experiments and presented as mean±SEM, “con” stands for the vehicle control group. ^#Compared with control group. *P<0.05, **P<0.01 and ***P<0.001 are compared with LPS-alone group.
Nitric oxide (NO) production is indirectly assessed by measuring the nitrite levels in the cultured medium determined by a colorimetric method based on the Griess reagent and sodium nitrite as a standard substance. The cells are pretreated with various concentrations of Pd-Ib (5-20 μg/mL). Two hours later, cells are incubated for another 20 hours in the presence of LPS (1 μg/mL) at 37° C. Then, 100 μL of each supernatant is mixed with the equal volume of Griess reagent. The samples are incubated at room temperature for 15 min. The optical densities are measured at 540 nm with a micro-plate reader and nitrite concentration is determined using a standard curve generated with known concentrations of sodium nitrite.

[4] = test system: IL-6; assay: ELISA of IL-6 in colon tissue, DSS-induced colitis; format: in vivo, C57BL/6 mice; details: compared with the DSS treatment group
Description: as §1, §2

[5] = test system: IFN-γ; assay: ELISA of IFN-γ in colon tissue, DSS-induced colitis; format: in vivo, C57BL/6 mice; details: compared with the DSS treatment group
Description: as §1, §2

[6] = test system: iNOS; assay: Real-time PCR of iNOS mRNA in LPS-stimulated RAW-Blue cells; format: cell-based, murine; details: LPS 1 μg/mL, 5, 10, 20 μg/mL, 20 hours
Description: as §3
Raw-Blue cells are plated at 20×10^5 cells/well in 12-well plate. After 24 hours of incubation, cells are pretreated with various concentrations (5-20 μg/mL) of Pd-Ib for 2 hours, followed by co-culturing with LPS (1 μg/mL) for 20 hours. Total RNA of Raw-Blue cells is extracted by Trizol reagent. Two micrograms (2 μg) of total RNA are reverse-transcribed with RT master mix to obtain cDNA. Real-time PCR is performed in a ViiA7 real-time PCR instrument (Applied Biosystems, Life Technologies, CA, USA) with the SYBR Green kit. A melting curve analysis is carried out after amplification to verify the accuracy of the amplicon. The comparative cycle of threshold (ΔΔCT) method of relative quantification is used to determine the fold-change in expression. Primer sequences for mRNA analysis of IL-1β, TNF-α, iNOS and β-Actin are described in Table 1.

`C/C=C(\C)C(=O)OC1C(=O)c2c(ccc3ccc(=O)oc23)OC1(C)C` (single isomer, unassigned; (+)) [Pd-Ib, (+)-3′-Angeloyloxy-4′-keto-3′,4′-dihydroseselin] was tested, and the IκB-α degradation [1] was “inhibits IκB-α degradation in a dose-dependent manner”, the “production of TNF-α in colon tissue” value [2] was “greatly reduces the production” and the inhibition at 5 µg/mL ([3]; 5 μg/mL) was 17.6 ± 2.96%. The inhibition at 10 µg/mL ([3]; 10 μg/mL) was 29.8 ± 1.34%, the inhibition at 20 µg/mL ([3]; 20 μg/mL) was 55.5 ± 1.15% and the “production of IL-6 in colon tissue” value [4] was “greatly reduces the production”. For the same compound, the “production of IFN-γ in colon tissue” value [5] was “greatly reduces the production” and the “mRNA level of iNOS” value [6] was “remarkedly inhibits the mRNA level of iNOS in a dose-dependent manner”.
